We go through 13 compounds from US5866570A, “Treatment of vascular leakage and related syndrome such as septic shock by administration of metalloproteinase inhibitors” (Wisconsin Alumni Research Foundation, priority 1994, dated 1999).

Converted amounts (≈) assume the structure as drawn. “And” between values parts separate entries of the source, which are not always exact repeats. Equal entries are not always repeated. Where two headings read alike, the source gives them in different places.

One data set has as its system mouse-embryo fibroblasts. Conditions: cited from earlier work.
Data set [1] deals with T1, recombinant human 72 kD type IV collagenase (Oncologix), APMA activated (Homo sapiens, UniProt P08253).
T1 construct: purchased Oncologix
T1 sequence (P08253 110-660): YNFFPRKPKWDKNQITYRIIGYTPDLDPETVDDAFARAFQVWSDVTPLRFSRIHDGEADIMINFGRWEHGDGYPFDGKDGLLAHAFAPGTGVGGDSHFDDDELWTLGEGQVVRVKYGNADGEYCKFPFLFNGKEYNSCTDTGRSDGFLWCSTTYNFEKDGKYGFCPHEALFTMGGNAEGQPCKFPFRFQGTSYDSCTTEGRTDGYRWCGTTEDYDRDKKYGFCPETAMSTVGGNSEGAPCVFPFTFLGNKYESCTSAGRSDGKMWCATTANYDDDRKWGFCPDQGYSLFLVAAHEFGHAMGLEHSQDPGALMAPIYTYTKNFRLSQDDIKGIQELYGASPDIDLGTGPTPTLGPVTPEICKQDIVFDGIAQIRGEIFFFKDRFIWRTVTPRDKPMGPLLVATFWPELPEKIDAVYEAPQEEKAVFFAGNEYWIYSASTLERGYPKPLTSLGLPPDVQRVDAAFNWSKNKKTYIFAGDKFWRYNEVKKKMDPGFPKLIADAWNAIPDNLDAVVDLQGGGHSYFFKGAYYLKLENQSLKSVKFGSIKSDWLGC
The experiment in a line: gelatinase assay, Example 11. In kind it is biochemical. Conditions: 10 ng enzyme, 2 hours preincubation at 37° C., 20 min assay, 3H collagen substrate; read-out: IC50 for inhibition of the 72 kD collagenase type IV. On the procedure:
NET-660 Collagen (Rat Type I), N-[Propionate-2-3-^3 H] Propionylated (NEN Dupont) with a specific activity of 0.4 mCi/mg, rat type I Collagen (Sigma), P-aminophenylmercuric acetate, APMA (Sigma), recombinant human 72 kD type IV collagenase (Oncologix) with a specific activity of at least 1000 μg collagen digested/hour/μg enzyme, collagenase buffer (50 mM Tris-HCl, 5 mM CaCl2, 200 mM NaCl, 0.02% Brij-35, pH 7.6), bovine serum albumin (BSA), 250 mM EDTA, and 10% TCA+0.7% tannic acid. The substrate is prepared by mixing the ^3 H collagen with the cold collagen at a 2/3 ratio and diluting in the collagenase buffer. The final assay concentration of the ^3 H collagen is 1% or between 20,000 to 40,000 cpm. Inhibitors are prepared just prior to use by dissolving in DMSO (final assay concentration<1%) or collagenase buffer.
The 72 kD collagenase enzyme is activated with 0.5 mM APMA for 30 min. at 37° C. and 10 ng of enzyme per assay is used. Inhibitors are preincubated with activated enzyme for 2 hours at 37° C. in collagenase buffer. Substrate is then added to enzyme inhibitor mix and the assay is run for 20 min at 37° C. […] Undigested substrate is precipitated with the TCA/tannic acid solution and soluble counts are determined in a scintillation counter.

The test system of another data set is Lewis lung LL carcinoma. As to conditions: cited from earlier work.
The next data set deals with mouse L cell. Conditions: l cells; read-out: ID50 inhibition of colony formation; cited from earlier work.
The subject of the next data set is S180 tumors. As to conditions: therapeutic index in vivo; cited from earlier work.
The conditions of data set [2]: at 25° C.; cited from earlier work.
Data set [3] relates to LS-MET-5 human colon carcinoma cells. As to the kind of experiment: LS-MET-5 i.v. human colon carcinoma metastasis model in nude mice. In kind it is in vivo. Here is the method: This example evaluates the effect of probimane on the survival of mice which have been injected with LS-MET-5 human colon carcinoma cells. In particular, probimane was given at 26 mg/kg in CMC, 1 intraperitoneal dose/day starting 1 day prior to intravenous injection of 1 million LS-MET-5 human colon carcinoma cells, at either 3 or 5 doses per week. During the first week the treated mice experienced a small weight drop and the dosage was decreased to 10.4 mg/kg. The control mice received CMC only at 10 μl/g.
Dose and Schedule--was suspended in sterile 1% CMC (carboxymethyl cellulose) […] by sonication in a water bath. […] Mice received drug 24 hours prior to injection of cells and each mouse received one dose/day i.p. for 5 consecutive days with 2 days of recovery or 3 consecutive days with 4 days of recovery. Treatment continued until mouse death or sacrifice.
LS-MET-5--human colon carcinoma metastatic variant cell line was developed at Oncologix, Inc. The cells are maintained in culture in DMEM+10% FBS and are dissociated for injection with trypsin/versine. The cells are resuspended in HBSS and 1 million cells injected in 100 μl into the lateral tail vein of the mouse.
Mice--HSD nu/nu female mice 6 weeks old (18-22 g) are weighed, tagged with a metal ear clip, and radomized for treatment or control groups. Mice are weighed daily and the dose of drug or vehicle is calculated.
Superficial metastases in the regional lymph nodes, dorsal thoracic brown fact pad, thigh muscle and on the rib cage begin appearing around day 22. Tumor growth is rapid with small metastases quickly coalescing to form a solid collar of metastases around the neck region of the mouse.
Although we have improved the incidence of mice with metastases by eliminating mice with less than perfect initial i.v. injections, we are still only 90% incidence. The experiment is terminated when the last mouse with evidence of metastases dies. The remaining mice are necropsied for presence of micro-metastases. We have found evidence that cells were indeed injected iv.

The mark [4] stands for this setting: postamputation schedule LL model.

In the case of `O=C1CN(CCCN2CC(=O)NC(=O)C2)CC(=O)N1` [ICRF-161], the “IC50, inhibition of [3H]thymidine incorporation” value (from here on “IC50, inhibition”) in the data set on mouse-embryo fibroblasts is “inactive”.

For `O=C(O)CN(CCN(CC(=O)O)CC(=O)O)CC(=O)O` [EDTA, ethylenediaminetetraacetic acid], in data set [1], the IC50 came to 300 µM.

As to `O=C1CN2CCN3CC(=O)N(CN4CCOCC4)C(=O)[C@H]3[C@H]2C(=O)N1CN1CCOCC1`, the antimetastatic effect result with Lewis lung LL carcinoma (setting [4]) was “most effective inhibitor of metastasis”.

Regarding `O=C1CN2C[C@@H]3C(=O)NC(=O)CN3C[C@@H]2C(=O)N1` (relative stereo) [Compound 23], the antimetastatic effect result was “no antimetastatic effects” in the data set with Lewis lung LL carcinoma (implanted LL carcinoma) and “does not exhibit any appreciable antimetastatic effect” in the data set on Lewis lung LL carcinoma (implanted LL carcinoma, listed as cis-23).

Take `O=C1CN2C[C@@H]3C(=O)N(CN4CCOCC4)C(=O)CN3C[C@@H]2C(=O)N1CN1CCOCC1` (relative stereo) [morpholinomethyl derivative of cis-23]: the antimetastatic effect result in the data set on Lewis lung LL carcinoma (implanted LL carcinoma) is given as “inhibits metastasis”.

As for `O=C1CN(CCN2CC(=O)NC(=O)C2)CC(=O)N1` [ICRF-154], in the data set with mouse L cell, the IC50 was 7.3 µM. Besides, the “IC50, inhibition” value with mouse-embryo fibroblasts is 2.0 µg/mL.

Consider `CC(C(C)N1CC(=O)NC(=O)C1)N1CC(=O)NC(=O)C1` (centres unmarked) [ICRF-193], for which the “calculated ratio of maximum tolerated dose to the dose required for 90% inhibition of S180 tumor growth” value with S180 tumors is 6.7. Besides, the IC50 in the data set with mouse L cell is 0.09 µM. In the data set on mouse-embryo fibroblasts, the “IC50, inhibition” value was 0.035 µg/mL.

On to `CCC(CN1CC(=O)NC(=O)C1)N1CC(=O)NC(=O)C1` (centres unmarked) [ICRF-192], for which, in the data set on mouse L cell, the IC50 was 720 µM.

In the case of `CC(C(C)N1CC(=O)NC(=O)C1)N1CC(=O)NC(=O)C1` (centres unmarked) [ICRF-196], in the data set with mouse L cell, the IC50 is 150 µM. The “IC50, inhibition” value in the data set with mouse-embryo fibroblasts was “inactive”.

`O=C1CN([C@@H]2C[C@@H](O)[C@@H](O)C[C@@H]2N2CC(=O)NC(=O)C2)CC(=O)N1` [Compound 89, (1β, 2β, 4α, 5α)-4,4'-(4,5-dihydroxy-1,2-cyclohexanediyl)bis(2,6-piperazinedione)]: the solubility in water in data set [2] was 29.3 mg/mL (≈ 86.1 mM).

As for `CC(CN1CC(=O)N(CN2CCOCC2)C(=O)C1)N1CC(=O)N(CN2CCOCC2)C(=O)C1` (centres unmarked) [Probimane, probimane], the “toxicity (body weight)” value in data set [3] (26 mg/Kg i.p. during the first week) is recorded as “weight drop indicated toxicity”. The “Mean IST” value in data set [3] (3×/Week) is 19%; in data set [3] (5×/Week), 16%. The “Mean Survival” value stood at 52 in data set [3] (3×/Week) and 50 in data set [3] (5×/Week). In addition, the “Median IST” value in data set [3] (3×/Week) and in data set [3] (5×/Week) was 18% throughout. Besides, the “Median Survival” value in data set [3] (3×/Week) and in data set [3] (5×/Week) was 47 throughout. In addition, the “Day of Death” value in data set [3] (3×/Week, 26 then 10.4 mg/kg i.p., single mice) is 43 and 44 and 45 and 46 and 52 and 62 and 63. The “Incidence of superficial metastases” value in data set [3] (Day 29, 3×/Week) is 7/11; in data set [3] (Day 29, 5×/Week), 5/11; in data set [3] (Day 30, 3×/Week), 7/11; in data set [3] (Day 30, 5×/Week) it was 10/11; in data set [3] (Day 31, 3×/Week) it was 7/11; in data set [3] (Day 31, 5×/Week), 11/11. In addition, the “Incidence of superficial metastases” value in data set [3] (Day 32, 3×/Week) is listed as 7/11; in data set [3] (Day 32, 5×/Week) it was 11/11. Besides, the “superficial Mets/Mouse” value in data set [3] (Day 29, 3×/Week) came out at 1.1; in data set [3] (Day 29, 5×/Week), 1.2; in data set [3] (Day 30, 3×/Week), 1.9; in data set [3] (Day 30, 5×/Week) it was 1.2; in data set [3] (Day 31, 3×/Week) it was 1.9; in data set [3] (Day 31, 5×/Week), 1.1. In addition, the “superficial Mets/Mouse” value in data set [3] (Day 32, 3×/Week) turned out to be 1.9; in data set [3] (Day 32, 5×/Week) it was 1.8. Further, the “condition of the treated mice” value in data set [3] (mouse, in vivo) was “pale and grayish in color, with scruffy coats, and were cold to the touch”.

Turning to `O=C1CN2CCN3CC(=O)N(CN4CCOCC4)C(=O)[C@H]3[C@@H]2C(=O)N1CN1CCOCC1` (relative stereo), the antimetastatic effect result in the data set with Lewis lung LL carcinoma (setting [4]) was “considerable antimetastatic activity”.

With `O=C1CN2C[C@H]3C(=O)NC(=O)CN3C[C@@H]2C(=O)N1` [Compound 22], the antimetastatic effect entry with Lewis lung LL carcinoma (implanted LL carcinoma) is on record as “no antimetastatic effects”.
